Where two headings read alike, the source gives them in different places.
How the values were obtained:
[1] = molecular target: T1, P-selectin-lg fusion protein (Homo sapiens, UniProt P16109); assay: LS 180 colon cancer cell adhesion to immobilized P-selectin-Ig; format: cell-based
T1 construct: Each selectin-lg contains the lectin domain, epidermal growth factor domain, and one (L-selectin-lg), two (P-selectin-lg) or six (E-selectin-lg) complement regulatory repeats; made in house
Method: (§1) Cell adhesion assays on immobilized selectin-lg were performed essentially as described (Nelson, R. M., et al., J. Clin. Invest., 91:1157, 1993; Nelson, R. M., et al., Symposia on Quant. Biol., 57:271, 1992). Briefly, Nunclon Terasaki Microwell plates were coated overnight with 5 μl/well of a 5 μg/ml solution of protein A (Chemicon, Temecula, Calif.) in 50 mM carbonate buffer, pH 9.5. Protein-A-coated plates were washed with Dulbecco's phosphate buffered saline (PBS), incubated for 1 hour with L-, P-, or E-selectin-lg fusion proteins in PBS (5-20 μg/ml), washed again, and blocked with PBS containing 1% human serum albumin (HSA). To measure inhibition of cell adhesion, 5 μl/well of lnsP6 in PBS was added to the selectin-lg coated plates and incubated for 30 min at […]. LS 180 cells were harvested by brief trypsinization and resuspended at 1.5×10^6 cells/ml in PBS containing 1% HSA; five μl/well of suspension was added, and incubated for 30 min at 4° C. After washing to remove unbound cells, adherent cells were fixed with glutaraldehyde (2.5% in PBS) and counted. Symbols and error bars represent mean number of adherent cells/mm^2 ±s.e.m., counted in quadruplicate wells in a single experiment representative of three. No LS 180 cell adhesion was detected on plates coated with protein A alone, or on plates coated with protein A-captured CD8-lg fusion protein.
(§2) LS 180 cells (ATCC, Rockville, Md.) were added to cell culture wells containing protein A-captured selectin-lg fusion proteins and incubated for 30 min at 4° C. to allow adhesion. The plates were washed to remove unbound cells and adherent cells were counted microscopically. To determine adhesion blocking activity, InsP6 at the indicated concentrations was added to selectin-lg-coated wells 30 min prior to addition of LS 180 cells.

[2] = molecular target: T2, L-selectin-lg fusion protein (Homo sapiens, UniProt P14151); assay: Competition ELISA: binding of L-selectin-Ig to immobilized BSA-sLe^x
T2 construct: Each selectin-lg contains the lectin domain, epidermal growth factor domain, and one (L-selectin-lg), two (P-selectin-lg) or six (E-selectin-lg) complement regulatory repeats; made in house
Text: Selectin-lg fusion proteins are recombinant chimeric molecules containing extracellular regions of selectins coupled to the hinge, CH2, and CH3 regions of human IgG1 (Aruffo, A., et al., Cell, 67:35, 1991; Walz, G., et al., Science, 250:1132, 1990). Each selectin-lg contains the lectin domain, epidermal growth factor domain, and one (L-selectin-lg), two (P-selectin-lg) or six (E-selectin-lg) complement regulatory repeats of the parent molecules. DNAs encoding selectin-Ig inserted in pCDM7 allowed transient expression of recombinant proteins in COS cells as previously described (Seed, B., et al., Proc. Natl. Acad. Sci., U.S.A., 84:3365, 1987; Aruffo, A., Current Protocols In Molecular Biology, eds. Ausubel, F. M., et al, 16:13.1, Greene Publishing Associates and Wiley-lnterscience, New York, N.Y., 1992). These DNAs were also ligated into pNUT (Palmiter, R. D., et al, Cell, 50:435, 1987) for amplification and stable expression in BHK cells. The fusion proteins were affinity purified from culture media using protein A (Pierce Chemical Company, Rockford, Ill.) or protein G (Pharmacia, Piscataway, N.J.) Sepharose, as previously described (Aruffo, A., et al., Cell, 67:35, 1991; Aruffo, A., Current Protocols In Molecular Biology, eds. Ausubel, F. M., et al, supra, 1992). Competition binding ELISAs using P- and E-selectin-lg were performed essentially as described (Nelson, R. M., et al., J. Clin. […] Selectin concentrations were from 10 to 30 nM. […] To increase L-selectin binding, an assay similar to that previously described was used (Foxall, C., et al., J. Cell Biol., 117:895, 1992), in which the L-selectin-lg (10-20 nM) was allowed to form aggregates with HRP-conjugated anti-lg antibody for 30 minutes prior to addition of inositols and incubation on the BSA-sLe^x -coated plate. IC50 values were calculated by fitting binding data to the equation: fraction of maximal binding=IC50 […] using nonlinear least squares analysis software (Origin, Microcal Inc, Northampton, Mass.). InsP6 (dodecasodium salt), InsS6 (hexapotassium salt), myo-inositol 1 monophosphate (cyclohexylammonium salt), and myo-inositol were from Sigma Chemical Company (St. Louis, Mo.). Stock solutions were prepared daily in 0.9% NaCl and sterilized by 0.22 μm filtration. InsP6 solutions were adjusted at pH 7.4 with HCl.
L-, P-, or E-selectin-lg fusion proteins were incubated for 2-3 hours on microtiter plates coated with the neoglycoprotein BSA-sLe^x, the plates washed, and bound selectin-lg was detected using a peroxidase-conjugated antibody directed against the lg portion and a chromogenic substrate. To determine blocking activity, solution-phase lnsP6 (.circle-solid.), InsS6 (.largecircle.), or inositol (.box-solid.) at the indicated concentrations were added to the solutions containing selectin-Ig fusion proteins prior to transfer to microtiter plates (competition ELISA).

[3] = molecular target: T2, L-selectin-lg fusion protein; assay: LS 180 colon cancer cell adhesion to immobilized L-selectin-Ig; format: cell-based
Method: as §1, §2

selectin = assay: Selectin-sulfatide interactions; format: binding

Row | Structure (SMILES) | LS 180 adhesion to P-selectin-Ig [1] | IC50 [2] | blocking of L-selectin-Ig at reduced Ca^2+ ([2]; Ca^2+ reduced to 0.15 mM) | LS 180 adhesion to L-selectin-Ig [3] | blocking of selectin-sulfatide interactions (selectin) | inhibition at 4000 µM ([1]; LS180, 4 mM, single experiment) | IC50 ([2]; BSA-sLe^x competition ELISA, read-out: IC50, L-selectin binding) | inhibition at 4000 µM ([3]; LS180, 4 mM, single experiment) | blocking of L-selectin-Ig binding ([2]; BSA-sLe^x competition ELISA)
1 | O=P(O)(O)O[C@H]1[C@H](OP(=O)(O)O)[C@@H](OP(=O)(O)O)[C@H](OP(=O)(O)O)[C@@H](OP(=O)(O)O)[C@H]1OP(=O)(O)O [InsP6, myo-inositol hexakisphosphate] | blocked the adhesion of LS 180 cells | 3.1 ± 0.5 µM | not enhanced | blocked the adhesion of LS 180 cells | blocked selectin-sulfatide interactions at concentrations similar to those that were effective in blocking the binding to BSA-sLe^x | – | – | – | –
2 | O=S(=O)(O)O[C@H]1[C@H](OS(=O)(=O)O)[C@@H](OS(=O)(=O)O)[C@H](OS(=O)(=O)O)[C@@H](OS(=O)(=O)O)[C@H]1OS(=O)(=O)O [InsS6, myo-inositol hexakissulfate] | – | – | – | – | blocked selectin-sulfatide interactions at concentrations similar to those that were effective in blocking the binding to BSA-sLe^x | ~45% | 210 ± 110 µM | ~45% | –
3 | O[C@H]1[C@H](O)[C@@H](O)[C@H](O)[C@@H](O)[C@H]1O [myo-inositol, reference compound] | inactive at concentrations up to 5 mM | – | – | inactive at concentrations up to 5 mM | not inositol) blocked selectin-sulfatide interactions | – | – | – | not myo-isositol, blocked binding

— patent US5827837A, “Polyanion anti-inflammatory agents” (priority 1996, dated 1998)
